According to patent publication US5455267A, “Chromone derivative, and aldose reductase inhibitor comprising said compound as active component” (Tsumura & Co., priority 1990, dated 1995):
Structures can show the parent of a compound that is named as a salt.

Legend:
[1] = tested on: sorbitol contained in the sciatic nerves (aldose reductase); test: Determination of Aldose Reductase Activity (In Vivo): sorbitol in sciatic nerves of STZ diabetic rats; design: species or system Wistar male rats; conditions: Rattus norvegicus, po, 336 h, Table 3, sciatic nerve sorbitol, read-out: Repression rate %; for inhibition in vivo at 30 mg/kg: 30 mg/kg orally for 2 weeks
Protocol: Streptozotocin (STZ) dissolved in 10 mM citrate buffer (pH 4.5) was administered intravenously to 6 week-old Wistar male rats […] in an amount of 65 mg/kg. 48 hours thereafter, blood was collected from the carotid […] of the rats. Rats with a blood glucose level of 200 mg/dl or more were classified as those with diabetes. Rats with a persistent high level of blood sugar were employed in the experiment. The blood glucose level was determined by the glucose oxidase method. 2 weeks after administration of STZ, a compound obtained in the following examples was suspended in purified water or 0.5% carboxy sodium cellulose solution. This solution was orally administered into a rat in an amount of 30 mg/kg for 2 weeks. 2 weeks after the adminstration, sciatic nerves were removed from the rat under ether anesthesia. The sciatic nerves were weighed and stored at -20° C. The amount of sorbitol contained in the sciatic nerves was determined as follows. That is, the sciatic nerves were subjected to extraction with 1 ml of purified water containing 10 gg/ml arabinitol at 100° C. for 20 min., followed by addition of 0.2 ml each of 0.2M barium hydroxide and 0.19M zinc sulfate. […] The resulting sample was […] then analyzed by gas chromatography. Sorbitol is an intermediate which occurs during convertion of glucose to fructose by aldose reductase, and this intermediate is accumulated together with fructose in the crystalline lenses and sciatic nerves, particularly under a high level of blood glucose. Therefore, the smaller amount of sorbitol formed indicates higher inhibition of aldose reductase.

aldose reductase = target: T1, aldose reductase (Rattus norvegicus, UniProt P07943); test: Determination of Aldose Reductase Activity (In Vitro); format: biochemical, rat (Wistar); conditions: Table 3; for inhibition at 10 µM: at the concentration of 10 μM, read-out: Inhibition rate %; for IC50: rat lens aldose reductase, 20 mM glucose, 30 min, 30° C, pH 7.0, read-out: 50% Inhibition Conc. [IC50 (M)]
T1 construct: The crystalline lenses were homogenized in 135 mM sodium-potassium-phosphate buffer (pH 7.0) and centrifuged; from tissue; host or cells: lens of 6 week-old Wistar rats (30,000 rpm supernatant of homogenate)
Protocol: 6 week-old Wistar rats were sacrificed under ether anesthesia, and immediately lenses were removed and stored at -20° C. The crystalline lenses were homogenized in 135 mM sodium-potassium-phosphate buffer (pH 7.0) and centrifuged for 30 min. at 30,000 rpm. The supernatant was used as an aldose-reductase solution. The above procedure was carried out at 4° C. The enzyme solution was stored at -20° C.
The measurement of aldose reductase activity was conducted according to the method as described by Duffane et al. (Biochemical Medicine, 32:99-105 (1984)).
That is, 100 gl of the above enzyme solution and 100 gl of a solution prepared by dissolving a compound obtained in the following example to a final concentration of from 1.0×10^-5 to 4.0×10^-7 M in dimethylsulfoxide (DMSO) were added to 800 gl of 135 mM sodium-potassium-phosphate buffer (pH 7.0) containing 100 mM lithium sulfate, 0.03 mM NADPH (reduced form of nicotinamide adeninc dinucleotide phosphate) and 20 mM glucose as a substrate. The sample was allowed to react for 30 min. at 30° C. The reaction was stopped by addition of 0.3 ml of 0.5N hydrochloric acid. The NADP (oxided form of nicotinamide adenine dinucleotide) formed during the above reaction was converted into a fluorescent substance by addition of 1 ml of 6N sodium hydroxide containing 10 mM imidazole. 30 min. thereafter, the sample was measured for fluorescence intensity at the fluorescence wavelength of 460 nm (excitation wavelength: 360 nm) using a fluorescence photometer F-4000 (manufactured by Hitachi, Ltd.) at room temperature. A sample containing DMSO in place of the present compound was used as a control, and its fluorescence intensity was determined in the same manner as above.
Aldose reductase is an enzyme to convert DL-glyceraldehyde or glucose into polyol in the presence of NADPH as a coenzyme. As this reaction proceeds, NADPH is converted into NADP, so that the smaller amount of NADP formed indicates higher inhibition of aldose reductase. […]

aldehyde reductase = target: T2, aldehyde reductase (Rattus norvegicus, UniProt P51635); test: Ability of Selective Inhibition of Aldose Reductase (aldehyde reductase activity); format: biochemical; conditions: Table 4; rat kidney aldehyde reductase, 50 mM DL-glyceraldehyde, pH 7.0; read-out: 50% Inhibition conc [IC50 (M)] Aldehyde reductase
T2 construct: The supernatant thus obtained was subjected to 30-60% ammonium sulfate fractionation; from tissue; host or cells: rat kidney (30-60% ammonium sulfate fraction of homogenate supernatant, dialyzed)
T2 sequence (P51635 1-325): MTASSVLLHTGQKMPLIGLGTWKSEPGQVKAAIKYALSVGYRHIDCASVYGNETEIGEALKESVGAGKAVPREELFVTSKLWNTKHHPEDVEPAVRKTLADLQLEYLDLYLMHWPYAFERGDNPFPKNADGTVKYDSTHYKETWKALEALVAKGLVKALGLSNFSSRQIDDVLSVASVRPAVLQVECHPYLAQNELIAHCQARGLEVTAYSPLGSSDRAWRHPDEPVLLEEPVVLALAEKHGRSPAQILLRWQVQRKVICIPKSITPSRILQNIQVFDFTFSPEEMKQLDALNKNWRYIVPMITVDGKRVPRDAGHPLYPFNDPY
Protocol: From rats under ether anesthesia, the kidneys were removed and stored at -20 ° C. The kidneys were homogenized in 0.1M phosphate buffer (pH 7.2) containing 5 mM 2-mercaptoethanol (kidneys: buffer =1:10 (by volume)), followed by centrifugation (14,000 rpm, 20 min., 4° C.), whereby a supernatant was obtained. The supernatant thus obtained was subjected to 30-60% ammonium sulfate fractionation. The resulting precipitates were collected by centrifugation (9,200 rpm, 20 min., 4° C.) The precipitates were suspended in a buffer with the same composition as described above. This suspension was dialyzed overnight at 4° C. against a buffer with the same composition, so that a crude aldehyde reductase solution was obtained. The activity of aldehyde reductase was determined in the same manner as for aldose reductase except for use of 0.1M phosphate buffer (pH 7.0) and as substrate 50 mM DL-glyceraldehyde.
The ability of selective inhibition of aldose reductase was determined by dividing the thus obtained 50% inhibition concentration [IC50 (M)] of aldehyde reductase by the above 50% inhibition concentration [IC50 (M)]of aldose reductase.

## COc1c(OC(C)C)cc2oc(Sc3ccc(OC(=O)CN)cc3)cc(=O)c2c1OC [Example 35, 5,6-dimethoxy-2-(4-glycyloxyphenylthio)-7-isopropoxychromone hydrochloride]
[1]
  inhibition in vivo at 30 mg/kg: 43.7%

## CCOc1c(OC)c(OC(C)C)cc2oc(Sc3ccc(OC(=O)CN)cc3)cc(=O)c12 [Example 36, 5-ethoxy-2-(4-glycyloxyphenylthio)-7-isopropoxy-6-methoxychromone hydrochloride]
[1]
  inhibition in vivo at 30 mg/kg: 12.3%

## CCC(CC)Oc1cc2oc(Sc3ccc(OC(=O)CN)cc3)cc(=O)c2c(OC)c1OC [Compound 1 obtained in Example 37, 7-(1-ethylpropoxy)-5,6-dimethoxy-2-(4-glycyloxyphenylthio)chromone hydrochloride]
[1]
  inhibition in vivo at 30 mg/kg: 51.6%

## CCC(C)Oc1cc2oc(Sc3ccc(O)cc3)cc(=O)c2c(OC)c1OC (stereo not shown) [Example 23, 7-s-butoxy-5,6-dimethoxy-2-(4-hydroxyphenylthio)chromone]
Aldose reductase
  inhibition at 10 µM: 100%
  IC50: 4.4e-08 M
Aldehyde reductase
  IC50: > 0.0001 M

## COc1c(O)cc2oc(Oc3ccc(O)cc3)cc(=O)c2c1O [Capillarisin, reference compound]
[1]; 100 mg/kg orally
  inhibition in vivo at 100 mg/kg: 18.9%
Aldose reductase
  inhibition at 10 µM: 81%
  IC50: 1.6e-06 M

## COc1cc(O)c2c(=O)cc(SCc3ccc(O)cc3)oc2c1 [Example 74, 5-hydroxy-2-(4-hydroxybenzylthio)-7-methoxychromone]
Aldose reductase
  inhibition at 10 µM: 52.1%

## CCC(CC)Oc1cc2oc(Sc3ccc(OC(=O)c4ccc(CN5CCN(C)CC5)cc4)cc3)cc(=O)c2c(OC)c1OC [Compound 2 obtained in Example 39, 5,6-dimethoxy-7-(1-ethylpropoxy)-2-{4-[4-(4-methylpiperazinomethyl)benzoyloxy]phenylthio}chromone dihydrochloride]
[1]
  inhibition in vivo at 30 mg/kg: 4.6%

## COC(=O)c1ccc(Sc2cc(=O)c3c(OC)cc(OC)cc3o2)cc1 [Example 65, methyl 4-(5,7-dimethoxychromonyl-2-thio)benzoate]
Aldose reductase
  inhibition at 10 µM: 23.1%

## COc1cc(O)c2c(=O)cc(Nc3ccc(O)cc3)oc2c1 [Compound 2 obtained in Example 77, 5-hydroxy-2-(4-hydroxyanilino)-7-methoxychromone]
Aldose reductase
  inhibition at 10 µM: 40%

## COc1cc(OC)c2c(=O)cc(Sc3ccccc3Cl)oc2c1 [Example 42, 5,7-dimethoxy-2-(2-chlorophenylthio)chromone]
Aldose reductase
  inhibition at 10 µM: 47.7%

## COc1cccc(Sc2cc(=O)c3c(OC)cc(OC)cc3o2)c1 [Example 47, 5,7-dimethoxy-2-(3-methoxyphenylthio)chromone]
Aldose reductase
  inhibition at 10 µM: 36.5%

## COc1c(OC(C)=O)cc2oc(Sc3ccc(O)cc3)cc(=O)c2c1O [Compound 2 obtained in Example 28, 7-acetoxy-5-hydroxy-2-(4-hydroxyphenylthio)-6-methoxychromone]
Aldose reductase
  inhibition at 10 µM: 95.4%
  IC50: 3e-07 M

## COc1c(OCC(C)C)cc2oc(Sc3ccc(O)cc3)cc(=O)c2c1OC(C)C [Example 17, 2-(4-hydroxyphenylthio)-7-isobutoxy-5-isopropoxy-6-methoxychromone]
Aldose reductase
  inhibition at 10 µM: 95.1%
  IC50: 1.3e-07 M

## COc1c(OC(C)=O)cc2oc(Sc3ccc(O)cc3)cc(=O)c2c1OC(C)=O [Compound 1 obtained in Example 28, 5,7-diacetoxy-2-(4-hydroxyphenylthio)-6-methoxychromone]
Aldose reductase
  inhibition at 10 µM: 95.4%
  IC50: 1.7e-07 M

## O=c1cc(SCc2ccc(O)cc2)oc2cc(O)cc(O)c12 [Example 75, 5,7-dihydroxy-2-(4-hydroxybenzylthio)chromone]
Aldose reductase
  inhibition at 10 µM: 43.5%

## COc1cc(OC)c2c(=O)cc(Sc3ccc(CO)cc3)oc2c1 [Example 66, 5,7-dimethoxy-2-(4-hydroxymethyl-phenylthio)chromone]
Aldose reductase
  inhibition at 10 µM: 31.5%

## CCC(CC)Oc1cc2oc(Sc3ccc(OC(=O)c4ccc(CN5CCN(C)CC5)cc4)cc3)cc(=O)c2c(O)c1OC [Example 40, 7-(1-ethylpropoxy)-5-hydroxy-2-{4-[4-(4-methylpiperazinomethyl)benzoyloxy]phenylthio}-6-methoxychromone dihydrochloride]
[1]
  inhibition in vivo at 30 mg/kg: 27.9%

## COc1cc(OC)c2c(=O)cc(Sc3ccncc3)oc2c1 [Example 59, 5,7-dimethoxy-2-(4-pyridylthio)chromone]
Aldose reductase
  inhibition at 10 µM: 37.1%

## CCOc1c(OC)c(OCC=C(C)C)cc2oc(Sc3ccc(O)cc3)cc(=O)c12 [Example 31, 5-ethoxy-2-(4-hydroxyphenylthio)-6-methoxy-7-prenyloxychromone]
Aldose reductase
  inhibition at 10 µM: 100%
  IC50: 2.3e-07 M

## COc1cc(O)c2c(=O)cc(Sc3ccc(O)cc3)oc2c1 [Example 72, 5-hydroxy-2-(4-hydroxyphenylthio)-7-methoxychromone]
Aldose reductase
  inhibition at 10 µM: 84%
  IC50: 1e-07 M

## COc1cc(OC)c2c(=O)cc(Sc3ccccc3O)oc2c1 [Example 56, 2-(2-hydroxyphenylthio)-5,7-dimethoxychromone]
Aldose reductase
  inhibition at 10 µM: 35.9%

## CCC(C)Oc1cc2oc(Sc3ccc(O)cc3)cc(=O)c2c(OC(C)CC)c1OC (stereo not shown) [Example 15, 5,7-di-s-butoxy-2-(4-hydroxyphenylthio)-6-methoxychromone]
Aldose reductase
  inhibition at 10 µM: 98.4%
  IC50: 3.8e-08 M

## COc1cc(OC)c2c(=O)cc(Sc3ccccc3OC)oc2c1 [Example 46, 5,7-dimethoxy-2-(2-methoxyphenylthio)chromone]
Aldose reductase
  inhibition at 10 µM: 28.4%

## CCCOc1cc2oc(Sc3ccc(O)cc3)cc(=O)c2c(OCCC)c1OC [Example 12, 5,7-dipropoxy-2-(4-hydroxyphenylthio)-6-methoxychromone]
Aldose reductase
  inhibition at 10 µM: 93%
  IC50: 1.5e-07 M

## COc1cc(OC)c2c(=O)cc(Sc3ccc(O)cc3)oc2c1 [Example 71, 2-(4-hydroxyphenylthio)-5,7-dimethoxychromone]
Aldose reductase
  inhibition at 10 µM: 88.7%
  IC50: 1e-07 M
